Test results taken from US20100331298A1, “Carboxamide Compounds and Their Use” (CytoPathfinder, Inc., priority 2007, published 2010).
Counter-ions that a name gives are not always drawn.

Biological target: T1, CCR2b (Homo sapiens, UniProt P41597)
T1 construct: host or cells: AequoScreen CCR2b cells
T1 sequence (P41597 1-360 isoform P41597-2): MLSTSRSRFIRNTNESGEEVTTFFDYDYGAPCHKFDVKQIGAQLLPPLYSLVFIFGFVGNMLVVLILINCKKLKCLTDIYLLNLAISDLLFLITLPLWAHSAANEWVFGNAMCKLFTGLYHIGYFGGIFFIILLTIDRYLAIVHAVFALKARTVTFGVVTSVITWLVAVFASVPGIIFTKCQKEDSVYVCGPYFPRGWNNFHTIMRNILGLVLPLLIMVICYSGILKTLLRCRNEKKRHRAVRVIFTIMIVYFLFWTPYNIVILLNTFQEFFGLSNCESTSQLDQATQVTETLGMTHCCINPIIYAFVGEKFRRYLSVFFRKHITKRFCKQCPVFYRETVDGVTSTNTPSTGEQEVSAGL
Assay: AequoScreen assay, Ca++ flux (antagonist mode against reference agonist MCP-1)
Assay type: cell-based
Details: AequoScreen CCR2b (FAST-060A) cells; inhibition of reference agonist MCP-1 at its EC80
Protocol: The biological activity of the compounds described herein can be evaluated using assays known in the art, such as the AequoScreen™ assay.
AequoScreen™ CCR2b (FAST-060A) cells grown to mid-log phase in culture media without antibiotics are detached with PBS-EDTA, centrifuged and resuspended in assay buffer (DMEM/HAM's F12 with HEPES, without phenol red+0.1% BSA protease free) at a concentration of 1×10^6 cells/mL. Cells are incubated at room temperature for at least 4 hours with coelenterazine h. Dose response curves are performed before testing. The reference agonist is MCP-1.
For agonist testing, 50 μL of cell suspension is mixed with 50 μL of test compound in a 96-well plate. The resulting emission of light is recorded using a Hamamatsu Functional Drug Screening System 6000 (FDSS 6000).
Following an incubation of 15 minutes after the first injection, 100 μL of the resulting cell suspension containing the test compound is mixed with 100 μL of the reference agonist in the 96 well test plate. The resulting emission of light is recorded using the same luminometer as for agonist testing.
To standardize the emission of recorded light (determination of the “100% signal”) across plates and across different experiments, some of the wells contained 100 μM digitonin, a saturating concentration of ATP (20 μM) and a concentration of reference agonist equivalent to the EC50 obtained during test validation.
Agonist activity of a test compound can be expressed as a percentage of the activity of the reference agonist at its EC100 concentration. Antagonist activity of a test compound can be expressed as a percentage of the inhibition of reference agonist activity at its EC80) concentration.

| IC50 [µM] | Compound |
| --- | --- |
| > 1 | CC(C)CC1(C(=O)NCc2cc(C(F)(F)F)cc(C(F)(F)F)c2)CCN(Cc2ccc3c(c2)OCCN3C)CC1 [Example 17, N-(3,5-Bis(trifluoromethyl)benzyl)-4-isobutyl-1-((4-methyl-3,4-dihydro-2H-benzo[b][1,4]oxazin-7-yl)methyl)piperidine-4-carboxamide] |
| < 0.2 | Cn1c(=O)oc2ccc(CN3CCC(CC4CC4)(C(=O)NCc4cc(C#N)cc(C(F)(F)F)c4)C3)cc21 (stereo not drawn) [Example 24, N-(3-Cyano-5-(trifluoromethyl)benzyl)-3-(cyclopropylmethyl)-1-((3-methyl-2-oxo-2,3-dihydrobenzo[d]oxazol-5-yl)methyl)pyrrolidine-3-carboxamide HCl salt] |
| 0.2 to 1 | O=C(NCc1cc(C(F)(F)F)cc(C(F)(F)F)c1)C1(CC2CC2)CCN(Cc2cccc3c(=O)[nH]ccc23)CC1 [Example 9, N-(3,5-Bis(trifluoromethyl)benzyl)-4-(cyclopropylmethyl)-1-((1-oxo-1,2-dihydroisoquinolin-5-yl)methyl)piperidine-4-carboxamide] |
| > 1 | CC(C)CC1(C(=O)NCc2cc(C(F)(F)F)cc(C(F)(F)F)c2)CCN(Cc2ccc3c(c2)nnn3C)CC1 [Example 18, N-(3,5-Bis(trifluoromethyl)benzyl)-4-isobutyl-1-((1-methyl-1H-benzo[d][1,2,3]triazol-5-yl)methyl)piperidine-4-carboxamide] |
| > 1 | O=C(NCc1cc(C(F)(F)F)cc(C(F)(F)F)c1)C1(CC2CC2)CCN(Cc2ccc3cc[nH]c(=O)c3c2)CC1 [Example 8, N-(3,5-Bis(trifluoromethyl)benzyl)-4-(cyclopropylmethyl)-1-((1-oxo-1,2-dihydroisoquinolin-7-yl)methyl)piperidine-4-carboxamide] |
| < 0.2 | O=C(NCc1cc(C(F)(F)F)cc(C(F)(F)F)c1)C1(CC2CC2)CCN(Cc2ccc3[nH]ncc3c2)C1 (stereo not drawn) [Example 21, 1-((1H-Indazol-5-yl)methyl)-N-(3,5-bis(trifluoromethyl)benzyl)-3-(cyclopro-pylmethyl)pyrrolidine-3-carboxamide dihydrochloride] |
| > 1 | O=C1COc2ccc(CN3CCC(CC4CC4)(C(=O)NCc4cc(C(F)(F)F)cc(C(F)(F)F)c4)CC3)cc2N1 [Example 6, N-(3,5-Bis(trifluoromethyl)benzyl)-4-(cyclopropylmethyl)-1-((3-oxo-3,4-dihydro-2H-benzo[b][1,4]oxazin-6-yl)methyl)piperidine-4-carboxamide] |
| > 1 | O=C(NCc1cc(C(F)(F)F)cc(C(F)(F)F)c1)C1(CC2CC2)CCN(Cc2ccc3ccc(=O)[nH]c3c2)CC1 [Example 11, N-(3,5-Bis(trifluoromethyl)benzyl)-4-(cyclopropylmethyl)-1-((2-oxo-1,2-dihydroquinolin-7-yl)methyl)piperidine-4-carboxamide] |
| 0.2 to 1 | COCC1(C(=O)N2CC(c3cc(C(F)(F)F)ccn3)C2)CCN(Cc2ccc3oc(=O)n(C)c3c2)C1 (stereo not drawn) [Example 28, 5-((3-(Methoxymethyl)-3-(3-(4-(trifluoromethyl)pyridin-2-yl)azetidine-1-carbonyl)pyrrolidin-1-yl)methyl)-3-methylbenzo[d]oxazol-2(3H)-one] |
| 0.2 to 1 | COCC1(C(=O)N2CCN(c3cc(C(F)(F)F)ccn3)CC2)CCN(Cc2ccc3oc(=O)n(C)c3c2)C1 (stereo not drawn) [Example 29, 5-((3-(Methoxymethyl)-3-(4-(4-(trifluoromethyl)pyridin-2-yl)piperazine-1-carbonyl)pyrrolidin-1-yl)methyl)-3-methylbenzo[d]oxazol-2(3H)-one] |
| < 0.2 | Cn1c(=O)ccc2ccc(CN3CCC(CC4CC4)(C(=O)NCc4cc(C(F)(F)F)cc(C(F)(F)F)c4)C3)cc21 (stereo not drawn) [Example 20, N-(3,5-Bis(trifluoromethyl)benzyl)-3-(cyclopropylmethyl)-1-((1-methyl-2-oxo-1,2-dihydroquinolin-7-yl)methyl)pyrrolidine-3-carboxamide] |
| > 1 | Cn1c(=O)ccc2ccc(CN3CCC(C(=O)NCc4cc(C(F)(F)F)cc(C(F)(F)F)c4)(C4CC4)CC3)cc21 [Example 3, N-(3,5-Bis(trifluoromethyl)benzyl)-4-cyclopropyl-1-((1-methyl-2-oxo-1,2-dihydroquinolin-7-yl)methyl)piperidine-4-carboxamide] |
| 0.2 to 1 | CN1C(=O)COc2ccc(CN3CCC(CC4CC4)(C(=O)NCc4cc(C(F)(F)F)cc(C(F)(F)F)c4)CC3)cc21 [Example 27, N-(3,5-Bis(trifluoromethyl)benzyl)-4-(cyclopropylmethyl)-1-((4-methyl-3-oxo-3,4-dihydro-2H-benzo[b][1,4]oxazin-6-yl)methyl)piperidine-4-carboxamide] |
| < 0.2 | Cn1c(=O)ccc2ccc(CN3CCC(CC4CC4)(C(=O)NCc4cc(C#N)cc(C(F)(F)F)c4)C3)cc21 (stereo not drawn) [Example 23, N-(3-Cyano-5-(trifluoromethyl)benzyl)-3-(cyclopropylmethyl)-1-((1-methyl-2-oxo-1,2-dihydroquinolin-7-yl)methyl)pyrrolidine-3-carboxamide TFA salt] |
| > 1 | O=C1COc2ccc(CCN3CCC(CC4CC4)(C(=O)NCc4cc(C(F)(F)F)cc(C(F)(F)F)c4)CC3)cc2N1 [Example 10, N-(3,5-Bis(trifluoromethyl)benzyl)-4-(cyclopropylmethyl)-1-(2-(3-oxo-3,4-dihydro-2H-benzo[b][1,4]oxazin-6-yl)ethyl)piperidine-4-carboxamide] |
| > 1 | O=C1COc2ccc(C(O)CN3CCC(CC4CC4)(C(=O)NCc4cc(C(F)(F)F)cc(C(F)(F)F)c4)CC3)cc2N1 (stereo not drawn) [Example 5, N-(3,5-Bis(trifluoromethyl)benzyl)-4-(cyclopropylmethyl)-1-(2-hydroxy-2-(3-oxo-3,4-dihydro-2H-benzo[b][1,4]oxazin-6-yl)ethyl)piperidine-4-carboxamide] |
| 0.2 to 1 | O=C1COc2ccc(CN3CCC(CC4CC4)(C(=O)NCc4cc(C(F)(F)F)cc(C(F)(F)F)c4)C3)cc2N1 (stereo not drawn) [Example 22, N-(3,5-Bis(trifluoromethyl)benzyl)-3-(cyclopropylmethyl)-1-((3-oxo-3,4-dihydro-2H-benzo[b][1,4]oxazin-6-yl)methyl)pyrrolidine-3-carboxamide] |
| > 1 | O=C(NCc1cc(C(F)(F)F)cc(C(F)(F)F)c1)C1(CC2CC2)CCN(Cc2ccc3nc[nH]c3c2)CC1 [Example 19, 1-((1H-Benzo[d]imidazol-6-yl)methyl)-N-(3,5-bis(trifluoromethyl)benzyl)-4-(cyclopropylmethyl)piperidine-4-carboxamide] |
| < 0.2 | Cn1c(=O)ccc2ccc(CN3CCC(CC4CC4)(C(=O)NCc4cc(C(F)(F)F)cc(C(F)(F)F)c4)CC3)cc21 [Example 1, N-(3,5-Bis(trifluoromethyl)benzyl)-4-(cyclopropylmethyl)-1-((1-methyl-2-oxo-1,2-dihydroquinolin-7-yl)methyl)piperidine-4-carboxamide] |
| 0.2 to 1 | Cn1c(=O)oc2ccc(CN3CCC(CC4CC4)(C(=O)NCc4cc(C(F)(F)F)cc(C(F)(F)F)c4)CC3)cc21 [Example 26, N-(3,5-Bis(trifluoromethyl)benzyl)-4-(cyclopropylmethyl)-1-((3-methyl-2-oxo-2,3-dihydrobenzo[d]oxazol-5-yl)methyl)piperidine-4-carboxamide] |

| Compound | IC50 [µM] |
| --- | --- |
| N-(3,5-Bis(trifluoromethyl)benzyl)-4-(cyclopropylmethyl)-1-((3-methyl-2-oxo-2,3-dihydrobenzo[d]thiazol-6-yl)methyl)piperidine-4-carboxamide TFA salt [Example 25] | < 0.2 |
